Data reported in the Kinase Knowledgebase extract (Sharma et al. 2016).

What was measured:
[1] = target: PIK3CD (Human) (UniProt O00329)
[2] = target: PIK3CD (Human) (UniProt O00329); experiment: Assessment of PIK3CD Kinase Activity (Scintillation Proximity Assay)

Chain of PIK3CD (Human) (O00329 whole entry, looked up): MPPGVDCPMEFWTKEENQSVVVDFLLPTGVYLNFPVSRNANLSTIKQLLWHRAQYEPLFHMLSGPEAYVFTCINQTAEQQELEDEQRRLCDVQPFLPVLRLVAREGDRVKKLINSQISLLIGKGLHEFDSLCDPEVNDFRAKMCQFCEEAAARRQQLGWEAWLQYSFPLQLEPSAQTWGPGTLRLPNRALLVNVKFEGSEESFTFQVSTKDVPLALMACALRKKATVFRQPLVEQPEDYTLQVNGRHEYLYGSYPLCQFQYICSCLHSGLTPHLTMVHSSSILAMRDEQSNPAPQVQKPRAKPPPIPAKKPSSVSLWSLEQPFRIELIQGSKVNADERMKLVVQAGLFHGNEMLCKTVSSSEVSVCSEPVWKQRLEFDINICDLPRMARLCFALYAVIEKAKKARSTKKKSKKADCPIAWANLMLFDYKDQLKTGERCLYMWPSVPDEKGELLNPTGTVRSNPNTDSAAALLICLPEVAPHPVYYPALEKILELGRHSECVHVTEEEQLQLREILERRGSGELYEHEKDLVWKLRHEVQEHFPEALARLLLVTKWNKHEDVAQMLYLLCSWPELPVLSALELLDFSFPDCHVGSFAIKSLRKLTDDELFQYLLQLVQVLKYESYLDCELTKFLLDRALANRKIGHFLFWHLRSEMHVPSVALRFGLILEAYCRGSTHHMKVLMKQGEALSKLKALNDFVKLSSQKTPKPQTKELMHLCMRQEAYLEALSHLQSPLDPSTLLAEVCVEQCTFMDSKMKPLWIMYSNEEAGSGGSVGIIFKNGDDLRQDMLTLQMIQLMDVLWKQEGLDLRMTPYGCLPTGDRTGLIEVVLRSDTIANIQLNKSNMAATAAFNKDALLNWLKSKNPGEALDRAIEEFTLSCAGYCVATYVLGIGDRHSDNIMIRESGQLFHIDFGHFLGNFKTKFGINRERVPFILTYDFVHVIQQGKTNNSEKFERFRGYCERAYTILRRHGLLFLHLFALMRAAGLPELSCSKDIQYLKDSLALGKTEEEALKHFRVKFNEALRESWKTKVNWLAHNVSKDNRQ

| SMILES | IC50 [1] | IC50 [2] |
| --- | --- | --- |
| CCOc1c(C(C)n2nc(-c3cccnc3)c3c(N)ncnc32)cc(Cl)c(C)c1-c1ccc(C(=O)N(C)C)nc1 (stereo not given) | – | ≤ 0.01 µM |
| CCOc1c(C(C)n2nc(-c3ccc(F)cc3)c3c(N)ncnc32)cc(Cl)c(C)c1-c1ccc(C(=O)N(C)C)nc1 (stereo not given) | – | 0.01 to 0.05 µM |
| CCOc1c(C(C)n2nc(C)c3c(N)ncnc32)cc(Cl)c(C#N)c1C1CN(CCO)C1 (stereo not given) | – | ≤ 0.01 µM |
| CCOc1c(C(C)n2nc(C)c3c(N)ncnc32)cc(C)c(C#N)c1C1CN(C[C@H](C)O)C1 (stereo not given in full) | – | ≤ 0.01 µM |
| CCNC(=O)c1c(C)c(Cl)cc(C(C)n2nc(-c3cnc4[nH]ccc4c3)c3c(N)ncnc32)c1OCC (stereo not given) | – | ≤ 0.01 µM |
| CCOc1c(C(C)n2nc(C)c3c(N)ncnc32)cc(Cl)c(C#N)c1-c1cncc(S(C)(=O)=O)c1 (stereo not given) | – | ≤ 0.01 µM |
| CCOc1c(C(C)n2nc(C)c3c(N)ncnc32)cc(Cl)c(C#N)c1-c1ccc(C(C)(C)O)nc1 (stereo not given) | – | ≤ 0.01 µM |
| CCOc1c(C(C)n2nc(C)c3c(N)ncnc32)cc(Cl)c(C#N)c1C1CN(CC(C)C)C1 (stereo not given) | – | ≤ 0.01 µM |
| CCOc1c(C(C)n2nc(C)c3c(N)ncnc32)cc(Cl)c(C#N)c1C1CN(C(C)=O)C1 (stereo not given) | – | ≤ 0.01 µM |
| CCOc1c(C(C)n2nc(C)c3c(N)ncnc32)cc(Cl)c(C)c1-c1cncc(S(C)(=O)=O)c1 (stereo not given) | – | ≤ 0.01 µM |
| CCOc1c(C(C)n2nc(C)c3c(N)ncnc32)cc(Cl)c(C#N)c1C1CN(C(C)(C)C(=O)OC(C)(C)C)C1 (stereo not given) | – | ≤ 0.01 µM |
| CCOc1c(C(C)n2nc(C)c3c(N)ncnc32)cc(Cl)c(C#N)c1-c1cncnc1 (stereo not given) | – | ≤ 0.01 µM |
| CCOc1c(C(C)n2nc(C)c3c(N)ncnc32)cc(Cl)c(C)c1-c1cnn(CC(=O)N(C)C)c1 (stereo not given) | – | ≤ 0.01 µM |
| CCOc1c(C(C)n2nc(C)c3c(N)ncnc32)cc(Cl)c(C#N)c1C1CN(C(N)=O)C1 (stereo not given) | – | ≤ 0.01 µM |
| CCOc1c(C(C)n2nc(C)c3c(N)ncnc32)cc(Cl)c(F)c1C1CNC(=O)C1 (stereo not given) | – | ≤ 0.01 µM |
| CCOc1c(C(C)n2nc(C)c3c(N)ncnc32)cc(Cl)c(C#N)c1C1CN(C(=O)NC)C1 (stereo not given) | – | ≤ 0.01 µM |
| CCOc1c(C(C)n2nc(C)c3c(N)ncnc32)cc(Cl)c(C#N)c1C1CN(C(COC)COC)C1 (stereo not given) | – | ≤ 0.01 µM |

More lines, now with the values ahead:

| IC50 [1] | IC50 [2] | SMILES |
| --- | --- | --- |
| 0.05 to 0.2 µM | – | COc1c([C@@H](C)n2nc(C)c3c(N)ncnc32)cc(Cl)c(C#N)c1C1CN(C[C@@H](C)O)C1 |
| – | ≤ 0.01 µM | CCN1CC(c2c(Cl)c(Cl)cc(C(C)n3nc(C)c4c(N)ncnc43)c2OC)C1 (stereo not given) |
| – | ≤ 0.01 µM | COc1c(C(C)n2nc(C)c3c(N)ncnc32)cc(Cl)c(C)c1-c1ccnc(N2CC(O)C2)c1 (stereo not given) |
| – | ≤ 0.01 µM | COc1c(C(C)n2nc(C)c3c(N)ncnc32)cc(Cl)c(C)c1C1CN(C(=O)c2cnoc2C)C1 (stereo not given) |
| – | ≤ 0.01 µM | COc1c(C(C)n2nc(C)c3c(N)ncnc32)cc(Cl)c(C)c1C1CN(CC#N)C1 (stereo not given) |
| – | 0.05 to 0.2 µM | COc1c(C(C)n2nc(C)c3c(N)ncnc32)cc(Cl)c(C)c1CC1CC1 (stereo not given) |
| – | ≤ 0.01 µM | CCOc1c(C(C)n2nc(C)c3c(N)ncnc32)cc(Cl)c(C)c1-c1cnn(C)c1 (stereo not given) |
| – | ≤ 0.01 µM | CCOc1c(C(C)n2nc(C)c3c(N)ncnc32)cc(Cl)c(C#N)c1C1CN(CC2CC2)C1 (stereo not given) |
| – | ≤ 0.01 µM | COc1c(C(C)n2nc(C)c3c(N)ncnc32)cc(Cl)c(C#N)c1C1CN(CC2CCOCC2)C1 (stereo not given) |
| – | ≤ 0.01 µM | COc1c(C(C)n2nc(C)c3c(N)ncnc32)cc(Cl)c(C)c1-c1cnn(C2CCN(C)CC2)c1 (stereo not given) |
| – | ≤ 0.01 µM | COc1c(C(C)n2nc(C)c3c(N)ncnc32)cc(Cl)c(C)c1C1CNC(=O)O1 (stereo not given) |
| – | ≤ 0.01 µM | CCN1CC(c2c(C#N)c(Cl)cc(C(C)n3nc(C)c4c(N)ncnc43)c2OC)C1 (stereo not given) |
| – | ≤ 0.01 µM | COc1c(C(C)n2nc(C)c3c(N)ncnc32)cc(Cl)c(C)c1C1CN(CC(N)=O)C1 (stereo not given) |
